From patent US5567716A, “Trans and cis traumatic acid salts having cicatrizant activity associated to bacteriostatic, antiviral, antibiotic or antifungal activity” (priority 1992, dated 1996)

Key:
E. Coli ATCC.35218 = test: Antibacterial activity, diffusion method in agar-germs (2.a); assay type: cell-based
Protocol: (§1) In a Tryprone Soy Agar diffusion medium ATCC (American Type Culture Collection) standard bacterial strains are inoculated, preparing a final solution of 10^6 cfu/g (colony forming unities) of the following strains:
(§2) Every plate contains 20 ml of a medium where 2 equidistant wells having a standard diameter are Formed and in each of these wells […] of the above described bacterial solution are inoculated. 2 plates are prepared for every couple of compounds to be tested at different concentrations, and For every strain, and each of these plates is compared with a white (sterile demineralized water inoculum). After the inoculum, the plates are placed in the refrigerator to favour diffusion and temporaneously blocking bacterial growth.
(§3) The compounds hexadecyltrimethylammonium traumatate and benzyldimethylhexadecylammonium traumatare respectively versus hexadecyl trimethylammonium bromide and benzyldimethylhexadecylammonium chloride are solubilized in demineralized water to Form solutions at the concentrations: 0.1; 0.5; and 1%.
(§4) The antibacterial effect is evaluated by measuring bacterial diffusion halo around the well vs white (halo absence).

PS Maltophila ATCC.13637 = test: as above; assay type: cell-based
Protocol: as §1, §2, §3, §4

[1] = test system: Pseudomonas Aeruginosa ATCC.35422; test: as above; assay type: cell-based
Protocol: as §1, §2, §3, §4

[2] = test system: Aspergillus Niger ATCC 16404; test: as above; assay type: cell-based; design: unit not given here
Protocol: as §1, §2, §3, §4

[3] = test system: Candida Albicans ATCC.10231; test: as above; assay type: cell-based; design: unit not given here
Protocol: as §1, §2, §3, §4

PS Cepacia ATCC.25416 = test: as above; assay type: cell-based; design: unit not given here
Protocol: as §1, §2, §3, §4

[4] = test system: Stafilococcus Aureus ATCC.65380; test: as above; assay type: cell-based; design: unit not given here
Protocol: as §1, §2, §3, §4

[5] = test system: Stafilococcus Epidermidis ATCC.14990; test: as above; assay type: cell-based; design: unit not given here
Protocol: as §1, §2, §3, §4

[6] = test system: Streptococcus Fecalis ATCC.291212; test: as above; assay type: cell-based; design: unit not given here
Protocol: as §1, §2, §3, §4

[7] = test system: standard bacterial strains; test: Antibacterial activity, diffusion method in agar-germs, all strains (2.a); assay type: cell-based; details: versus hexadecyltrimethylammonium bromide and benzyldimethylhexadecylammonium chloride; in words
Protocol: as §1, §2, §3, §4

B.subtilis ATCC 6633 = test: Evaluation of bacteriostatic minimal concentration (BMC); assay type: cell-based; details: Table 2.b)5; test concentrations given in μg/ml
Protocol: (§5) 1. Culture Medium: Tryprone Soy Broth (TBS) - Biogenetics
(§6) Microbic standard strains from American Type Culture Collection (ATCC) were used, chosen among aerobic Gram positive and negative as follows:
(§7) The broths culture of the different species are prepared growing the standard strain (kept in Tryptic Soy Agar (TSA) slent at 5° C.) in Tryptone Soy Broth (TSB) for 12 hours at 37° C. 10 ml are then taken up from each culture, centrifugated for 3 times at 3500 PM washing each time the sediment using 10 ml of sterile saline solution. The sediment is resuspended in the saline solution until obtainment of a turbidity corresponding to the Mc Farland standard solution (the suspension title must be […] UFC/ml).
(§8) The compounds, dissolved as stock solution, were added to test tubes containing 5 ml TBS in order to obtain the desired Final concentration 10000; 5000; 1000; 200; 40; 2; 0.4; 0.05 μg/ml (culture medium maximal dilution=1/10).
(§9) 50 μl of bacterial suspension are added to the tube containing the compounds to be tested and incubated at 37° C.: the densitometric determination is made in comparison with Mc Farland standard solution 24 and 48 hours later.
(§10) After the incubation time the suspensions ape gently agitated; 50 μl of each suspension are inoculated in tubes containing […] of TSB and incubated at 37° C.; the densitometric determination is made 48 hours later.
(§11) BMC is defined by comparison between the two densitometric evaluation.

C.albicans ATCC 10231 = test: as above; assay type: cell-based; details: Table 2.b)6; test concentrations given in μg/ml
Protocol: as §5, §6, §7, §8, §9, §10, §11

Ps.aeruginosa ATCC 35422 = test: as above; assay type: cell-based; details: Table 2.b)1; test concentrations given in μg/ml
Protocol: as §5, §6, §7, §8, §9, §10, §11

St.aureus ATCC 65380 = test: as above; assay type: cell-based; details: Table 2.b)2; test concentrations given in μg/ml
Protocol: as §5, §6, §7, §8, §9, §10, §11

[8] = test system: St.epidermidis ATCC 14990; test: as above; assay type: cell-based; details: Table 2.b)4; test concentrations given in μg/ml
Protocol: as §5, §6, §7, §8, §9, §10, §11

E.coli ATCC 35218 = test: microbe, parasite or virus in culture; assay type: cell-based; details: Table 2.b)3; test concentrations given in μg/ml
Protocol: as §5, §6, §7, §8, §9, §10, §11

[9] = Physical chemical characteristics: solubility in water and organic solvents
3T3 fibroblasts = test: Cellular proliferation of 3T3 fibroblasts, neutral red colorimetry (1.1a); assay type: cell-based, Mice
Protocol: Experiments on 3T3 fibroblasts
Mice 3T3 fibroblasts cultures sown at a 40.000/ml concentration on plates having 6 wells in a DMEM culture medium enriched with 10% calf serum are used. After 24 hours culture, the 90 prepared wells are divided in order to allow the analyses of the compounds of the invention, every compound to be tested being used respectively at a concentration of 0.1, 1 and 10 μg/ml by subsequent evaluations after 48 and 72 hours of incubation.
Hexadecyltrimethylammoniun (ETA) traumatare: solubilized in water and brought to the desired final concentrations of 0.1. 1 and 10 μg/ml by progressive dilutions;
Ethanolamine traumatate: solubilized in water and brought to the final concentrations of 0.1, 1 and 10 μg/ml by progressive dilutions;
Traumatic acid: neutralized with sodium hydroxyde and solubilized in water, then brought to the final concentrations of 0.1, 1 and 10 μg/ml by progressive dilutions with the culture medium.
The compounds are added to the cells after 24 hours culture. The cells number is measured by colorimetry with the neutral red intravital stain after 24, 48, 72 hours of incubation.

fibroblast cells L929 = test: Cell growth of fibroblast L929 culture, crystal violet colorimetry (1.2); details: in words
Protocol: Mice fibroblast cells L929, clone derived from connective tissue, are suspended in Eagle's MEM with penicillin (100U/ml)--streptomycin (0.1 mg/ml), seeded in culture dishes (10000cells/dish) and cultured overnight. After 24 hours the culture medium was decantated and the tested compounds are added. The cellular density is measured after 4 (t0) and 24 (t1) hours of incubation at 37° C. in 5% CO2 air by colorimetry using crystal violet (exposure for 15 minutes, room temperature; absorbance 570 nm).
The cells number is measured at 4 (t0) and 24 (t1) hours from the seeding. The cell growth is evaluated at t1/t0 rate (%).

## benzylmethylhexadecylammonium trans-traumatate
E. Coli ATCC.35218; sol. 0.1%
  bacterial diffusion halo: n.h.
E. Coli ATCC.35218; sol. 0.5%
  bacterial diffusion halo: n.h.
E. Coli ATCC.35218; sol. 1%
  bacterial diffusion halo: 13
PS Maltophila ATCC.13637; sol. 0.1%
  bacterial diffusion halo: n.h.
PS Maltophila ATCC.13637; sol. 0.5%
  bacterial diffusion halo: n.h.
PS Maltophila ATCC.13637; sol. 1%
  bacterial diffusion halo: 15
[1]; sol. 0.1%
  bacterial diffusion halo: n.h.
[1]; sol. 0.5%
  bacterial diffusion halo: 12
[1]; sol. 1%
  bacterial diffusion halo: 14
[2]; sol. 0.1%
  bacterial diffusion halo: 12
[2]; sol. 0.5%
  bacterial diffusion halo: 16
[2]; sol. 1%
  bacterial diffusion halo: 19
[3]; sol. 0.1%
  bacterial diffusion halo: 13
[3]; sol. 0.5%
  bacterial diffusion halo: 15
[3]; sol. 1%
  bacterial diffusion halo: 16
PS Cepacia ATCC.25416; sol. 0.1%
  bacterial diffusion halo: 12
PS Cepacia ATCC.25416; sol. 0.5%
  bacterial diffusion halo: 15
PS Cepacia ATCC.25416; sol. 1%
  bacterial diffusion halo: 15
[4]; sol. 0.1%
  bacterial diffusion halo: 17
[4]; sol. 0.5%
  bacterial diffusion halo: 22
[4]; sol. 1%
  bacterial diffusion halo: 22
[5]; sol. 0.1%
  bacterial diffusion halo: 15
[5]; sol. 0.5%
  bacterial diffusion halo: 17
[5]; sol. 1%
  bacterial diffusion halo: 19
[6]; sol. 0.1%
  bacterial diffusion halo: 12
[6]; sol. 0.5%
  bacterial diffusion halo: 14
[6]; sol. 1%
  bacterial diffusion halo: 15
[7]
  antibacterial and bacteriostatic activity profile: antibacterial and bacteriostatic activity profile comparable to that of the comparison products
B.subtilis ATCC 6633
  MINIMAL BACTERIAL CONCENTRATION: 1,000.00
C.albicans ATCC 10231
  MINIMAL BACTERIAL CONCENTRATION: 2.00
Ps.aeruginosa ATCC 35422
  MINIMAL BACTERIAL CONCENTRATION: 10,000.00
St.aureus ATCC 65380
  MINIMAL BACTERIAL CONCENTRATION: 1,000.00
[8]
  MINIMAL BACTERIAL CONCENTRATION: 2.00
E.coli ATCC 35218
  MINIMAL BACTERIAL CONCENTRATION: 200.00
[9]; in ethanol
  organic solvent solubility: > 20 mg/mL
[9]; water
  solubility in water: > 10 mg/mL

## hexadecyltrimethylammonium trans-traumatate [Hexadecyltrimethyl Ammonium Traumatate]
3T3 fibroblasts; 0.1 μg/ml, in words
  effect on cells proliferation: able to affect cells proliferation according to a not statistically significant trend
3T3 fibroblasts; 1 μg/ml, in words, ETA salt > ethanolamine salt = traumatic acid
  effect on cellular proliferation: able to increase cellular proliferation
3T3 fibroblasts; 24 hours of incubation, 0.1 (head: μg/ml), control 0.579 ± 0.021
  cells numeration (colorimetric, neutral red): 0.575 ± 0.041
3T3 fibroblasts; 24 hours of incubation, 1.0 (head: μg/ml), control 0.579 ± 0.021
  cells numeration (colorimetric, neutral red): 0.619 ± 0.033
3T3 fibroblasts; 24 hours of incubation, 10.0 (head: μg/ml), control 0.579 ± 0.021
  cells numeration (colorimetric, neutral red): 0.491 ± 0.021
3T3 fibroblasts; 48 hours of incubation, 0.1 (head: μg/ml), control 1.334 ± 0.050
  cells numeration (colorimetric, neutral red): 1.553 ± 0.061
3T3 fibroblasts; 48 hours of incubation, 1.0 (head: μg/ml), control 1.334 ± 0.050
  cells numeration (colorimetric, neutral red): 1.501 ± 0.081
3T3 fibroblasts; 48 hours of incubation, 10.0 (head: μg/ml), control 1.334 ± 0.050, ** p < 0.01 significant reduction
  cells numeration (colorimetric, neutral red): 0.842 ± 0.078
3T3 fibroblasts; 72 hours of incubation, 0.1 (head: μg/ml), control 2.360 ± 0.125
  cells numeration (colorimetric, neutral red): 2.501 ± 0.131
3T3 fibroblasts; 72 hours of incubation, 1.0 (head: μg/ml), control 2.360 ± 0.125
  cells numeration (colorimetric, neutral red): 2.503 ± 0.100
3T3 fibroblasts; 72 hours of incubation, 10.0 (head: μg/ml), control 2.360 ± 0.125, ** p < 0.01 significant reduction
  cells numeration (colorimetric, neutral red): 1.385 ± 1.63
3T3 fibroblasts; side control experiment, ETA and ethanolamine salts > traumatic acid
  time necessary for the cells to reach the confluence: reduce the time normally necessary for the cells to reach the confluence
E. Coli ATCC.35218; sol. 0.1%
  bacterial diffusion halo: n.h.
E. Coli ATCC.35218; sol. 0.5%
  bacterial diffusion halo: 13
E. Coli ATCC.35218; sol. 1%
  bacterial diffusion halo: 15
PS Maltophila ATCC.13637; sol. 0.1%
  bacterial diffusion halo: n.h.
PS Maltophila ATCC.13637; sol. 0.5%
  bacterial diffusion halo: 15
PS Maltophila ATCC.13637; sol. 1%
  bacterial diffusion halo: 21
[1]; sol. 0.1%
  bacterial diffusion halo: n.h.
[1]; sol. 0.5%
  bacterial diffusion halo: n.h.
[1]; sol. 1%
  bacterial diffusion halo: n.h.
[2]; sol. 0.1%
  bacterial diffusion halo: 19
[2]; sol. 0.5%
  bacterial diffusion halo: 22
[2]; sol. 1%
  bacterial diffusion halo: 22
[3]; sol. 0.1%
  bacterial diffusion halo: 19
[3]; sol. 0.5%
  bacterial diffusion halo: 24
[3]; sol. 1%
  bacterial diffusion halo: 25
PS Cepacia ATCC.25416; sol. 0.1%
  bacterial diffusion halo: 18
PS Cepacia ATCC.25416; sol. 0.5%
  bacterial diffusion halo: 19
PS Cepacia ATCC.25416; sol. 1%
  bacterial diffusion halo: 22
[4]; sol. 0.1%
  bacterial diffusion halo: 21
[4]; sol. 0.5%
  bacterial diffusion halo: 24
[4]; sol. 1%
  bacterial diffusion halo: 24
[5]; sol. 0.1%
  bacterial diffusion halo: 20
[5]; sol. 0.5%
  bacterial diffusion halo: 22
[5]; sol. 1%
  bacterial diffusion halo: 22
[6]; sol. 0.1%
  bacterial diffusion halo: 20
[6]; sol. 0.5%
  bacterial diffusion halo: 22
[6]; sol. 1%
  bacterial diffusion halo: 22
[7]
  antibacterial and bacteriostatic activity profile: antibacterial and bacteriostatic activity profile comparable to that of the comparison products
B.subtilis ATCC 6633
  MINIMAL BACTERIAL CONCENTRATION: 2.00
C.albicans ATCC 10231
  MINIMAL BACTERIAL CONCENTRATION: 2.00
Ps.aeruginosa ATCC 35422
  MINIMAL BACTERIAL CONCENTRATION: > 10,000
St.aureus ATCC 65380
  MINIMAL BACTERIAL CONCENTRATION: 1,000.00
[8]
  MINIMAL BACTERIAL CONCENTRATION: 8.00
E.coli ATCC 35218
  MINIMAL BACTERIAL CONCENTRATION: 200.00

## CC(C)(C)CC(C)(C)c1ccc(OCCOCC[N+](C)(C)Cc2ccccc2)cc1.CC(C)(C)CC(C)(C)c1ccc(OCCOCC[N+](C)(C)Cc2ccccc2)cc1.O=C([O-])/C=C/CCCCCCCCC(=O)[O-] [Benzethonium Traumatate, benzethonium trans-traumatate]
B.subtilis ATCC 6633
  MINIMAL BACTERIAL CONCENTRATION: 8.00
C.albicans ATCC 10231
  MINIMAL BACTERIAL CONCENTRATION: 2.00
Ps.aeruginosa ATCC 35422
  MINIMAL BACTERIAL CONCENTRATION: 200.00
St.aureus ATCC 65380
  MINIMAL BACTERIAL CONCENTRATION: 2.00
[8]
  MINIMAL BACTERIAL CONCENTRATION: 2.00
E.coli ATCC 35218
  MINIMAL BACTERIAL CONCENTRATION: 40.00
Fibroblast cells L929
  cell growth effect compared to traumatic acid: higher than traumatic acid effect
Fibroblast cells L929; benzethonium > gentamycin salt
  promotion of cell growth (proliferation): capable to promote cell growth (proliferation) according to dose-effect relationship
